Assays:
Assay in all cases: relative viability (nuclei count vs DMSO), 5 days (fraction); higher = more cells survive
EHT 1864 + Foretinib = compound: C1COCCN1CC2=CC(=O)C(=CO2)OCCCCCSC3=C4C=CC(=CC4=NC=C3)C(F)(F)F [EHT 1864] + COc1cc2c(Oc3ccc(NC(=O)C4(C(=O)Nc5ccc(F)cc5)CC4)cc3F)ccnc2cc1OCCCN1CCOCC1 [Foretinib] (partner 0.25 µM)
Outline: (§1)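 Nuclei were stained with Hoechst during a one-step fixation (final 0.05% Triton X-100, 1% formaldehyde, 1 ug/ml Hoechst) carried out 5 days after dosing, then counted on 4× images. The cells, lung cancer lines in 1536-well plates, had been dosed by pin tool the day after seeding with one drug alone or a fixed anchor-drug dose plus five library-drug doses (not always all listed) in √10 steps. Relative viability is the nuclei count in treated wells divided by that in vehicle wells, and each value is the median of duplicate plates.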

EHT 1864 + Bortezomib = compound: C1COCCN1CC2=CC(=O)C(=CO2)OCCCCCSC3=C4C=CC(=CC4=NC=C3)C(F)(F)F [EHT 1864] + CC(C)C[C@H](NC(=O)[C@H](Cc1ccccc1)NC(=O)c1cnccn1)B(O)O [Bortezomib] (partner 0.002 µM)
Outline: as §1

EHT 1864 + Palbociclib = compound: C1COCCN1CC2=CC(=O)C(=CO2)OCCCCCSC3=C4C=CC(=CC4=NC=C3)C(F)(F)F [EHT 1864] + CC(=O)c1c(C)c2cnc(Nc3ccc(N4CCNCC4)cn3)nc2n(C2CCCC2)c1=O [Palbociclib] (partner 0.5 µM)
Outline: as §1

EHT 1864 + Pictilisib = compound: C1COCCN1CC2=CC(=O)C(=CO2)OCCCCCSC3=C4C=CC(=CC4=NC=C3)C(F)(F)F [EHT 1864] + CS(=O)(=O)N1CCN(Cc2cc3nc(-c4cccc5[nH]ncc45)nc(N4CCOCC4)c3s2)CC1 [Pictilisib] (partner 1 µM)
Outline: as §1

Cell Line	relative viability (EHT 1864 + Foretinib; first compound 0.04 µM)	relative viability (EHT 1864 + Foretinib; first compound 0.1265 µM)	relative viability (EHT 1864 + Foretinib; first compound 0.4 µM)	relative viability (EHT 1864 + Foretinib; first compound 1.265 µM)	relative viability (EHT 1864 + Foretinib; first compound 4 µM)	relative viability (EHT 1864 + Bortezomib; first compound 0.04 µM)	relative viability (EHT 1864 + Bortezomib; first compound 0.1265 µM)	relative viability (EHT 1864 + Bortezomib; first compound 0.4 µM)	relative viability (EHT 1864 + Bortezomib; first compound 1.265 µM)	relative viability (EHT 1864 + Bortezomib; first compound 4 µM)	relative viability (EHT 1864 + Palbociclib; first compound 0.04 µM)	relative viability (EHT 1864 + Palbociclib; first compound 0.1265 µM)	relative viability (EHT 1864 + Palbociclib; first compound 0.4 µM)	relative viability (EHT 1864 + Palbociclib; first compound 1.265 µM)	relative viability (EHT 1864 + Palbociclib; first compound 4 µM)	relative viability (EHT 1864 + Pictilisib; first compound 0.04 µM)	relative viability (EHT 1864 + Pictilisib; first compound 0.1265 µM)	relative viability (EHT 1864 + Pictilisib; first compound 0.4 µM)	relative viability (EHT 1864 + Pictilisib; first compound 1.265 µM)	relative viability (EHT 1864 + Pictilisib; first compound 4 µM)
LOU-NH91	0.956	0.874	0.922	0.96	0.814	0.566	0.514	0.492	0.498	0.498	0.512	0.524	0.53	0.495	0.589	0.537	0.507	0.559	0.527	0.514
LU99A	0.818	0.796	0.835	0.805	0.749	1.06	0.672	1.06	1.25	1.13	0.438	0.375	0.364	0.396	0.374	0.389	0.276	0.326	0.289	0.336
LXF-289	0.976	0.961	0.947	0.925	0.851	1.02	0.92	0.929	0.973	0.872	0.594	0.572	0.542	0.537	0.581	0.788	0.766	0.755	0.794	0.727
NCI-H23	0.92	0.959	0.889	0.956	0.923	0.879		0.84	0.995	0.924	0.559	0.429	0.531	0.546	0.492	0.476		0.432	0.593	0.55
NCI-H322M	0.898	0.948	0.995	0.895	1.06	1.22	1.2	1.23	1.27	1.25	0.488	0.488	0.434	0.456	0.465	0.519	0.514	0.533	0.529	0.572
NCI-H441	0.953	1.03	1	0.942	0.984	0.381	0.372	0.505	0.447	0.285	0.233		0.215	0.195	0.226	0.388	0.359	0.515	0.6	0.508
NCI-H460	1	0.921	1.01	1.01	0.853	1.01	1.1	0.993	0.994	0.905		0.155	0.16	0.16	0.173	0.379	0.401	0.365	0.251	0.345
NCI-H520	0.56	0.734	0.736	0.697	0.744	0.685	0.339	0.629	0.773	0.323	0.227	0.212	0.258	0.225	0.231	0.346	0.27	0.308	0.324	0.336
NCI-H647	1.19	0.977	1.37	1.27	1.26	0.808	0.753	0.954	0.934	1.04	0.414	0.351	0.451	0.373	0.375	0.56		0.468	0.325	0.433
NCI-H650	0.99	0.859	0.97	1.03	0.99	0.911		0.862	0.827	0.914	0.332	0.256	0.346	0.327	0.325	0.915		0.941	0.895	0.847
NCI-H661	1.03	0.956	0.993	0.986	0.817	0.866	0.705	0.769	0.655	0.716	0.4	0.389	0.41	0.381	0.352	0.403	0.435	0.481	0.437	0.415
NCI-H727	0.905	0.875	0.724	0.95	0.928	0.92	0.973	0.848		1.12	0.663	0.642	0.626	0.595	0.653	0.482	0.353	0.419		0.458
NCI-H838	0.88	0.864	1.05	0.95	1.01	0.873	0.47	0.778	0.906	0.614	0.208	0.185	0.266	0.223	0.244	0.501	0.353	0.548	0.435	0.428
NCI-H1355	0.972	0.815	0.921	0.95	0.966	1.32	0.908	1.12	1.32	1.24	0.411	0.357	0.391	0.389	0.414	0.423	0.385	0.412	0.445	0.475
NCI-H1437	1.31	1.22	1.2	1.03	0.824	0.563	0.476	0.475	0.486	0.473	0.311	0.293	0.309	0.236	0.302	0.438	0.47	0.418	0.492	0.397
NCI-H1650			1.18	0.896	0.92	0.202	0.205	0.228	0.215	0.202	0.375	0.31	0.273	0.378	0.277	0.597	0.351	0.579	0.548	0.442
NCI-H1651	0.836	0.757	0.845	0.691	0.827	0.988	0.89	0.974	0.868	0.929	0.529	0.501	0.534	0.504	0.522	0.537	0.562	0.555	0.563	0.492

Cell Line	relative viability (EHT 1864 + Foretinib; first compound 0.04 µM)	relative viability (EHT 1864 + Foretinib; first compound 0.1265 µM)	relative viability (EHT 1864 + Foretinib; first compound 0.4 µM)	relative viability (EHT 1864 + Foretinib; first compound 1.265 µM)	relative viability (EHT 1864 + Foretinib; first compound 4 µM)	relative viability (EHT 1864 + Bortezomib; first compound 0.04 µM)	relative viability (EHT 1864 + Bortezomib; first compound 0.1265 µM)	relative viability (EHT 1864 + Bortezomib; first compound 0.4 µM)	relative viability (EHT 1864 + Bortezomib; first compound 1.265 µM)	relative viability (EHT 1864 + Bortezomib; first compound 4 µM)	relative viability (EHT 1864 + Palbociclib; first compound 0.04 µM)	relative viability (EHT 1864 + Palbociclib; first compound 0.1265 µM)	relative viability (EHT 1864 + Palbociclib; first compound 0.4 µM)	relative viability (EHT 1864 + Palbociclib; first compound 1.265 µM)	relative viability (EHT 1864 + Palbociclib; first compound 4 µM)	relative viability (EHT 1864 + Pictilisib; first compound 0.04 µM)	relative viability (EHT 1864 + Pictilisib; first compound 0.1265 µM)	relative viability (EHT 1864 + Pictilisib; first compound 0.4 µM)	relative viability (EHT 1864 + Pictilisib; first compound 1.265 µM)	relative viability (EHT 1864 + Pictilisib; first compound 4 µM)
NCI-H1666	0.999	0.917	0.894	0.948	0.998	0.763	0.728	0.772	0.78	0.98	0.644	0.611	0.667	0.583	0.636	0.533	0.442	0.501	0.545	0.575
NCI-H1734	0.911		0.706	0.961	0.826	1.09	0.788	0.914	0.902	0.901	0.411	0.314	0.337	0.337	0.356	0.485	0.455	0.455	0.452	0.418
NCI-H1755	0.914	0.872	0.876	0.844	0.803	1.02	0.824	0.895	0.899	0.941	0.46	0.437	0.42	0.43	0.42	0.495	0.376	0.403	0.436	0.428
NCI-H1915	1.07		1	1.07	1.08	1		1.01	0.934	0.964	0.554		0.53	0.503	0.516	1.02		0.963	0.998	0.905
NCI-H1975	0.933	0.98	0.883		0.876	0.343	0.395	0.376	0.32	0.369	0.641	0.647	0.4	0.348	0.552	0.304	0.305	0.278	0.269	0.301
NCI-H1993	0.741		0.748	0.75	0.744	0.973	0.733	1.06	1.01	1.06	0.693		0.682	0.664	0.741	0.88	1.04	0.788	0.866	0.894
NCI-H2009	1.17	1.12	1.22	1.2	1.07	0.881	0.794	1.04	0.918	0.936	0.228	0.209	0.193	0.24	0.173	0.798	0.664	0.852	0.718	0.761
NCI-H2023	0.787	0.855	0.957	0.876	0.778	0.911	0.634	0.867	1.04	0.953	0.33	0.318	0.354	0.382	0.364	0.244	0.208	0.223	0.212	0.271
NCI-H2085	1.13		0.9	0.92	0.89	0.989	0.785	0.962	0.971	0.782	0.446	0.459	0.456	0.451	0.417	0.555	0.524	0.47	0.448	0.428
NCI-H2087	1.01		1	1.01	0.845	0.629	0.569	0.753	0.739	0.781	0.266		0.223	0.156	0.224	0.942	0.698	0.952	0.72	0.97
NCI-H2126	1.17	1.22	1.19	1.22	1.22	1.16	1.1	1.11	1.09	1	0.338	0.365	0.333	0.336	0.349	0.53	0.44	0.516	0.521	0.514
NCI-H2228	0.81	0.758	0.904	0.836	0.9	0.935	1.13	0.984	0.904	1.11	0.881	0.634	0.642		0.777	0.414	0.357	0.267	0.417	0.443
NCI-H2347	0.974		0.862	0.363	0.809	1.24		1.13	0.894	0.995	0.428	0.382	0.368	0.439	0.364	0.596		0.582	0.639	0.583
NCI-H2405	1.05	1.05	1.07	0.999	1.13	1.05	0.945	0.84	0.76	1.02	0.536	0.497	0.469	0.5	0.538	0.447	0.398	0.456		0.439
NCI-H3122	0.938	0.983	0.961	0.982	0.885	1.03	0.973	0.96	0.99	0.965	0.172	0.21	0.211	0.203	0.201	0.564	0.428	0.583	0.617	0.675
PC-3 [JPC-3]	1.04	0.887	0.943	0.968	0.936	0.83	0.737	0.895	0.853	0.763	0.549	0.554	0.539	0.545	0.57	0.816	0.577	0.853	0.928	0.657
